Measured values as given in ChEMBL document CHEMBL1156829 (Proc Natl Acad Sci U S A, 2008).
pEC50: −log10 of the molar value. Numbered stars: 1 amine (or outer) side, 2 acyl side, 3 side chain; on linkers, the order of the positions; unused ones are H or OH. Bridge positions count the residues as written; N and C are the ends. Square brackets hold non-standard residues; d marks the D form. Peptide text beside a SMILES is read from it. I, II: the chains in the order shown. * marks the point of attachment. ξ: configuration not given here. Actinocin(9to1) = Cc1c2oc3c(C)ccc(C(=O)[*:1])c3nc-2c(C(=O)[*:2])c(N)c1=O; X1 = CCC(=O)CC(O)C[C@@H](C)C[C@H](N[*:1])C(=O)[*:2]; Hexenoyl(2E,4S-Me) = CC[C@H](C)/C=C/C(=O)*; Leu(3R-OH) = CC(C)[C@@H](O)[C@H](N)C(=O)O; NH((S)CH(Me)CH2NMe2) = C[C@@H](CN(C)C)N*; Pro(4S-Me) = C[C@@H]1CN[C@H](C(=O)O)C1; ξNMeV = CNC(C(=O)O)C(C)C; Boc = CC(C)(C)OC(=O)*; Aib = CC(C)(N)C(=O)O; ξT = CC(O)C(N)C(=O)O; OBn = c1ccc(CO*)cc1; NHCH2CH2OH = OCCN*; ξP = O=C(O)C1CCCN1; βAla = NCCC(=O)O; Sar = CNCC(=O)O; For = O=C*

Tests used:
Plasmodium falciparum [1] = experiment: NOVARTIS: Inhibition of Plasmodium falciparum W2 (drug-resistant) proliferation in erythrocyte-based infection assay; assay type: functional, organism-based; settings: Plasmodium falciparum, W2; read-out: EC50
Plasmodium falciparum [2] = experiment: NOVARTIS: Inhibition of Plasmodium falciparum 3D7 (drug-susceptible) proliferation in erythrocyte-based infection assay; assay type: functional, organism-based; settings: Plasmodium falciparum, 3D7
[3] = NOVARTIS: Cytotoxicity against human hepatocellular carcinoma cell line (Huh7); assay type: toxicity, cell-based, Huh-7; settings: Huh7 cells (hepatocellular carcinoma cell line)

Row | SMILES | pEC50 (Plasmodium falciparum [1]) | pEC50 (Plasmodium falciparum [2]) | CC50 [3]
1 | O=C(c1cnn(-c2ccccc2)c1C(F)(F)F)N1CCN(c2ccnc3cc(Cl)ccc23)CC1 | 7.05 | 6.46 | > 100 µM
2 | O=[N+]([O-])c1ccc(N2CCCN(C(=S)Nc3ccc(F)cc3Br)CC2)nc1 | 7.04 | 6.96 | > 100 µM
3 | COc1cc(OC)c(NC(=O)C2c3ccccc3C(=O)N(CC(C)C)C2c2cccs2)cc1Cl (stereo unspecified) | 7.04 | 6.94 | > 100 µM
4 | O=C(N1CCN(c2ccc(C(F)(F)F)cc2[N+](=O)[O-])CC1)C(Cl)(Cl)Cl | 7.06 | 6.58 | > 95 µM
5 | CCCN(CCC)[P+](CCC)(c1ccc([P+](CCC)(N(CCC)CCC)N(CCC)CCC)cc1)N(CCC)CCC | 7.18 | 6.71 | 72.6 µM
6 | c1ccc2c(c1)OC13CCCCC1C2NCC3 (stereo unspecified) | 7.36 | 6.57 | 48.6 µM
7 | CCOC(=O)c1cccc(NC(=O)CC2C(=O)N(c3ccccc3)C(=O)N2C2CCCC2)c1 (stereo unspecified) | 7.05 | 6.56 | > 100 µM
8 | Cc1ccn2c(NC(C)(C)CC(C)(C)C)c(-c3ccccc3OC(=O)c3ccccc3C)nc2c1 | > 8.04 | 6.12 | > 10 µM
9 | COc1cccc(-c2ccc(O)c(CN(C)CCc3ccc(OC)c(OC)c3)c2)n1 | 7.28 | 6.47 | 57.9 µM
10 | CC(=NO)c1ccc(NC2=C(N3CCCCC3)C(=O)c3ccccc3C2=O)cc1 | 7.05 | 7.03 | > 100 µM
11 | CCOC(=O)c1cccc(NC(=O)CCn2c(-c3ccc(F)cc3)cc(C(=O)OCC)c2C)c1 | 7.05 | 7.23 | > 100 µM
12 | O=C1C(=Cc2ccccc2)Oc2c1ccc(O)c2CN1CCCCC1 | 7.04 | 5.85 | > 100 µM
13 | O=C(c1cccc([N+](=O)[O-])c1)c1ccc(Cl)c(Cl)c1 | 7.24 | 6.21 | 62.4 µM
14 | CCOc1ccc(Nc2cc(=O)oc3ccccc23)cc1 | 7.04 | 6.21 | > 100 µM
15 | COc1ccc(CCN2C(=O)N(CC(C)C)C(=O)C23CCN(Cc2ccccc2O)CC3)cc1 | 7.03 | 6.65 | > 100 µM
16 | CCCCS(=O)(=O)N(C)CCCNc1ccnc2cc(Cl)ccc12 | > 8.04 | 7.16 | > 10 µM
17 | COC(=O)C1=C(C)NC2=C(C(=O)CC(c3ccc(OC)c(OC)c3)C2)C1c1cccc(Cl)c1Cl (stereo unspecified) | 7.03 | 6.68 | > 100 µM
18 | CCCOC(=O)C1=C(C)NC2=C(C(=O)CC(c3ccc(OC)c(OC)c3)C2)C1c1ccc(Cl)c(Cl)c1 (stereo unspecified) | 7.31 | 6.84 | 52.6 µM
19 | CCc1ccc(C(=O)Oc2ccccc2-c2nc3cc(C)ccn3c2NC(C)(C)CC(C)(C)C)cc1 | > 8.03 | 6.34 | > 10 µM
20 | C[C@@H]1CCC[C@@H](C[C@H]2Cc3cc(O)cc(O)c3C(=O)O2)O1 | 7.03 | 7.34 | > 100 µM
21 | COC(=O)C1=C(C)NC2=C(C(=O)CC(c3ccc(OC)cc3)C2)C1c1ccccc1F (stereo unspecified) | 7.05 | 6.64 | > 100 µM

Row | SMILES | pEC50 (Plasmodium falciparum [1]) | pEC50 (Plasmodium falciparum [2]) | CC50 [3]
22 | Cc1ccn2c(NC(C)(C)CC(C)(C)C)c(-c3ccccc3OC(=O)c3ccc(Cl)cc3Cl)nc2c1 | > 8.06 | 6.14 | > 10 µM
23 | CC(=O)N(C1=C(N2CCCCC2)C(=O)c2ccccc2C1=O)c1ccccc1C | 7.74 | 7.47 | 20.2 µM
24 | CN1CCN=C1c1ccc(NC(=O)c2ccc(C(=O)Nc3ccc(C4=NCCN4C)cc3)c([N+](=O)[O-])c2)cc1 | 8.04 | 7.14 | > 10 µM
25 | O=C(Nc1ccc(C2=NCCCN2)cc1)c1ccc(C(=O)Nc2ccc(C3=NCCCN3)cc2)cc1 | 7.03 | 6.92 | > 100 µM
26 | CCCCN(C)Cc1cc(-c2cccc(OC)n2)ccc1O | 7.04 | 6.06 | > 100 µM
27 | CC(C)CC(NC(=O)OC(C)(C)C)C(=O)NC(Cc1ccccc1)C(=O)OCc1ccccc1 (stereo not drawn) (Boc-Leu-Phe-OBn; configuration not given here) | 5.53 | < 4.90 | > 100 µM
28 | CC(C)C[C@@H](NC(=O)[C@H](C)NC(=O)CNC(=O)[C@@H](NC=O)C(C)C)C(=O)N[C@@H](C)C(=O)N[C@@H](C(=O)N[C@H](C(=O)N[C@@H](C(=O)N[C@@H](Cc1c[nH]c2ccccc12)C(=O)N[C@H](CC(C)C)C(=O)N[C@@H](Cc1c[nH]c2ccccc12)C(=O)N[C@H](CC(C)C)C(=O)N[C@@H](Cc1c[nH]c2ccccc12)C(=O)N[C@H](CC(C)C)C(=O)N[C@@H](Cc1c[nH]c2ccccc12)C(=O)NCCO)C(C)C)C(C)C)C(C)C (For-VGA[dL]A[dV]V[dV]W[dL]W[dL]W[dL]W-NHCH2CH2OH) | 5.52 | 5.54 | 98.8 µM
29 | Cc1c2oc3c(C)ccc(C(=O)NC4C(=O)N[C@@H](C(C)C)C(=O)N5CCCC5C(=O)N(C)CC(=O)N(C)C(C(C)C)C(=O)OC4C)c3nc-2c(C(=O)NC2C(=O)N[C@H](C(C)C)C(=O)N3CCCC3C(=O)N(C)CC(=O)N(C)C(C(C)C)C(=O)OC2C)c(N)c1=O (stereo partly specified) (I: [ξT]V[ξP][Sar][ξNMeV] / II: [ξT][dV][ξP][Sar][ξNMeV]; ester I:1-I:C, II:1-II:C; linker I:N-II:N via Actinocin(9to1)) | 7.68 | 7.59 | 0.296 µM
30 | CC(C)C[C@@H]1NC(=O)[C@@H](CC(C)C)NC(=O)[C@H](C(C)C)NC(=O)[C@H]2CSSC[C@@H](NC1=O)C(=O)N2 (cyclo(L[dC][dC]V[dL]); disulfide 2-3) | 6.79 | < 5.90 | > 10 µM
31 | CCC(=O)CC(O)C[C@@H](C)C[C@H](NC(=O)[C@@H]1C[C@H](C)CN1C(=O)/C=C/[C@@H](C)CC)C(=O)N[C@H](C(=O)NC(C)(C)C(=O)N[C@@H](CC(C)C)C(=O)N[C@@H](CC(C)C)C(=O)NC(C)(C)C(=O)NC(C)(C)C(=O)NCCC(=O)N[C@@H](C)CN(C)C)[C@H](O)C(C)C (stereo partly drawn) ({Hexenoyl(2E,4S-Me)}-[Pro(4S-Me)][X1][Leu(3R-OH)][Aib]LL[Aib][Aib][βAla]-{NH((S)CH(Me)CH2NMe2)}) | 6.19 | 6.71 | 6.47 µM
32 | CCCn1c(=O)c2[nH]c(C3CCCC3)nc2n(CCC)c1=O [1,3-DIPROPYL-8-CYCLOPENTYLXANTHINE [DPCPX]] | 6.46 | 6.12 | […]
33 | N/C(=N\C(=O)c1nc(Cl)c(N)nc1N)NCc1ccc(Cl)c(Cl)c1 [3',4' DICHLOROBENZAMIL] | 6.55 | 7.05 | 4.59 µM
34 | COc1cc([C@@H]2OC[C@@H]3[C@H]2CO[C@H]3c2cc(OC)c(O[C@@H]3O[C@H](CO)[C@@H](O)[C@H](O)[C@H]3O)c(OC)c2)cc(OC)c1O [ACANTHOSIDE B] | 6.41 | 6.11 | > 10 µM
35 | CCN1CCN(Cc2ccc(-c3cc4c(N[C@H](C)c5ccccc5)ncnc4[nH]3)cc2)CC1 [AEE-788] | 7.55 | 5.86 | 27.8 µM
36 | CCN(CC)CCCC(C)Nc1cc(/C=C/c2ccccc2Cl)nc2cc(Cl)ccc12 (stereo unspecified) [AMINOQUINOL] | 6.55 | 6.75 | > 10 µM
37 | COc1ccc(C[C@H]2NC[C@H](O)[C@H]2OC(C)=O)cc1 [ANISOMYCIN] | 7.99 | 8.01 | > 2.36 µM
38 | C[C@@H]1CC[C@H]2[C@@H](C)C(=O)O[C@@H]3O[C@@]4(C)CC[C@@H]1[C@]32OO4 [ARTEMISININ] | 7.99 | 7.37 | > 10 µM
39 | C[C@H]1[C@@H](O)O[C@@H]2O[C@@]3(C)CC[C@H]4[C@H](C)CC[C@@H]1[C@@]24OO3 [ARTENIMOL] | 8.15 | 7.93 | 44.9 µM
40 | COc1ccc(CCN2CCC(Nc3nc4ccccc4n3Cc3ccc(F)cc3)CC2)cc1 [ASTEMIZOLE] | 6.15 | 6.35 | 20.9 µM
41 | COc1ccc2cc3[n+](cc2c1OC)CCc1cc2c(cc1-3)OCO2 [BERBERINE CHLORIDE] | 6.35 | 6.66 | > 100 µM
42 | CCOC(=O)c1cnc2cc(OCC(C)C)c(OCC(C)C)cc2c1O [BUQUINOLATE] | 6.02 | 6.19 | > 10 µM
